Measurements taken from US20250296971A1, “GASTRIC INHIBITORY PEPTIDE RECEPTOR LIGANDS” (priority 2021, published 2025).
Like-named read-outs stand apart in the source and are kept apart here. *1 amine or outer side, *2 acyl side, *3 side chain or, on linkers, in order; H or OH if unused. Where a SMILES comes first, the peptide text is derived from it. Bridges are numbered along the chain shown (N, C = ends). Side-chain parts run from the residue outwards. [ ]: non-standard residue; d: D form. The star is where a group is joined. DOTA(Ga) = O=C1CN2CCN3CCN(CC(=O)*)CCN(CC2)CC(=O)[O][Ga]([O]1)[O]C(=O)C3; DOTA(Lu) = O=C1CN2CCN3CCN(CC(=O)*)CCN(CC2)CC(=O)[O][Lu]([O]1)[O]C(=O)C3; NH(1-deoxy-D-glucityl) = OC[C@@H](O)[C@@H](O)[C@H](O)[C@@H](O)CN*; Pro(trans-4-NH2) = O=C([C@@H]1C[C@@H](N[*:3])CN1[*:1])[*:2]; DOTA = O=C(O)CN1CCN(CC(=O)O)CCN(CC(=O)*)CCN(CC(=O)O)CC1; Trp(5-Cl) = N[C@@H](Cc1c[nH]c2ccc(Cl)cc12)C(=O)O; Pyridine(2,6-diCH2) = c1cc(C[*:1])nc(C[*:2])c1; Pro(4R-NH2) = N[C@H]1CN[C@H](C(=O)O)C1; Glutaryl = O=C(CCCC(=O)[*:2])[*:1]; Hyp = O=C(O)[C@@H]1C[C@@H](O)CN1; X1 = O=C(CN1CCC(N[*:1])CC1)[*:2]; Suc = O=C(CCC(=O)[*:2])[*:1]; hSer = N[C@@H](CCO)C(=O)O; Api = NC1(C(=O)O)CCNCC1

How the values were obtained:
[1] = biological target: T1, GIPR (CHO-K1-hGIPR cells) (Homo sapiens, UniProt P48546); test: FACS binding assay; conditions: competition with 20 nM GIP-057, 4° C., 1 hour
T1 construct: host or cells: CHO-K1
T1 sequence (P48546 22-466): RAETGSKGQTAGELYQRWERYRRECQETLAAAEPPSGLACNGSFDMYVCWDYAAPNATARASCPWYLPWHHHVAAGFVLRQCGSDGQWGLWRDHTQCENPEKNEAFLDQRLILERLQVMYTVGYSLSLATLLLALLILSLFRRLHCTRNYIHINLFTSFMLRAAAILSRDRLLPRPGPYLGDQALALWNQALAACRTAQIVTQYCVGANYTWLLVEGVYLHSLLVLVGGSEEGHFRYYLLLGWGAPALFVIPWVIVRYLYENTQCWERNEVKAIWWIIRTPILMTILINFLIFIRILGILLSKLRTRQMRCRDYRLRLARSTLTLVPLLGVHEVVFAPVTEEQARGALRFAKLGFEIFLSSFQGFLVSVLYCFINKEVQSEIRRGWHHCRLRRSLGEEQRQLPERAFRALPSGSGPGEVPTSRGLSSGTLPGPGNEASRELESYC
Outline: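 CHO-K1 cells expressing human GIPR, washed in PBS/1% FCS, then stained with 1 μg/mL APC-streptavidin for 30 min on ice.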

[2] = biological target: T2, human GIP receptor (bioGIPR) (Homo sapiens, UniProt P48546); test: Surface plasmon resonance (SPR) based binding assay; conditions: for t1/2 Category: SPR dissociation half-life
T2 construct: Biotinylate extracellular of the human GIP receptor (bioGIPR, Proteros biostructures GmbH, lot #02/2b); purchased Proteros biostructures GmbH lot #02/2b
T2 sequence (P48546 22-138 limits assumed): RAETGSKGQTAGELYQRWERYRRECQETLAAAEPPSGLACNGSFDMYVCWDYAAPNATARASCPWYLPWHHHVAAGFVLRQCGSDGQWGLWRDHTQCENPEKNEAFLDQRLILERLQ
Procedure: Surface plasmon resonance (SPR) studies were performed using a Biacore™ T200 SPR system. Briefly, polarized light is directed towards a gold-labeled sensor surface, and minimum intensity reflected light is detected. The angle of reflected light changes as molecules bind and dissociate.
Biotinylate extracellular of the human GIP receptor (bioGIPR, Proteros biostructures GmbH, lot #02/2b) was captured on a biotin capture chip (Biotin CAPture Kit, Series S, GE Healthcare, Cat #28-9202-34). bioGIPR was diluted in Running Buffer (HBST from Xantec Analytics; […], 0.05% Tween20, 0.1% DMSO) to a final concentration 100 nM and than flushed over the Fc-capture chip to immobilized ˜3500 RUs.
Stock solutions of test compounds were prepared by dissolving each compound in DMSO. DMSO stock solution were diluted 1:1000 in Running Buffer without DMSO. Further sequential dilutions were made with Running Buffer containing 0.1% DMSO. SPR binding analyses were performed in Single Cycle Kinetic (SCK) mode at 25° C. Flow cell without immobilized bioGIPR served as reference flowcell. After each SCK run, bioGIRP and the Biotin Capture Reagent was removed with Regeneration Solution (6 M Guanidium, 0.75 M NaOH).
In between every three SCK measurements, a blank run with Running Buffer instead of test compound was included to correct for baseline drifts (double blanking method).
For each test compound, SPR raw data in the form of resonance units (RU) were plotted as sensorgrams using the Biacore™ T200 control software. The signal from the blank sensorgram was subtracted from that of the test compound sensorgram (blank corrected). The blank corrected sensorgram was corrected for baseline drift by subtracting the sensorgram of a SCK run without the test compound (running buffer only). The association rate (kon), dissociation rate (koff), dissociation constant (KD), and t1/2 were calculated from blank corrected SPR data using the 1:1 Langmuir binding model from the Biacore™ T200 evaluation software. Raw data and fit results were imported as text files in IDBS. The pKD value (negative decadic logarithm of dissociation constant) was calculated in the IDBS excel template.

[3] = read-out: pIC50 Category (converted)
[4] = Single Cycle Kinetic mode, 25° C.
[5] = SPR, Single Cycle Kinetic mode, 25° C., 1:1 Langmuir binding model, read-out: pKD Category (converted)

| Compound | IC50 [1, 3] [nM] | t1/2 Category [2, 4] | Kd [2, 5] [nM] | IC50 ([1]; pIC50 Category) [nM] | Kd [2] [nM] |
| --- | --- | --- | --- | --- | --- |
| CC[C@H](C)[C@@H]1NC(=O)[C@H](CC(C)C)NC(=O)C2(CCNCC2)NC(=O)[C@@H](NC(=O)[C@@H](CC(C)C)NC(=O)[C@H](CCC(=O)O)NC(=O)[C@@H]2C[C@@H](N)CN2C(=O)[C@H](Cc2c[nH]c3ccc(Cl)cc23)NC(=O)[C@H](Cc2c[nH]c3ccccc23)NC(=O)CCC(=O)O)CSCc2cccc(n2)CSC[C@@H](C(=O)NC2CCN(CC(=O)N[C@H](CCC(=O)NC[C@H](O)[C@@H](O)[C@H](O)[C@H](O)CO)C(=O)N[C@@H](CCCCNC(=O)CN3CCN(CC(=O)O)CCN(CC(=O)O)CCN(CC(=O)O)CC3)C(N)=O)CC2)NC1=O [GIP-022, HO-Succinyl-Trp-5Clw-Tap-Glu-leu-[Cys(2Lut)-Apc-Leu-Ile-Cys]-APAc-glu(AGLU)-Lys(DOTA)-NH2] (Suc-W[Trp(5-Cl)][Pro(4R-NH2)]E[dL]C[Api]LIC[X1][dE](NH(1-deoxy-D-glucityl))K(DOTA)-NH2; linker 6-10 via Pyridine(2,6-diCH2)) | < 10 | A (t1/2 values>15 min) | < 1 |  |  |
| CC[C@H](C)[C@@H]1NC(=O)[C@H](CC(C)C)NC(=O)C2(CCN(C(=O)CN3CCN4CCN5CCN(CC3)CC(=O)[O][Lu]([O]C(=O)C5)[O]C(=O)C4)CC2)NC(=O)[C@@H](NC(=O)[C@@H](CC(C)C)NC(=O)[C@H](CCC(=O)O)NC(=O)[C@@H]2C[C@@H](N)CN2C(=O)[C@H](Cc2c[nH]c3ccc(Cl)cc23)NC(=O)[C@H](Cc2c[nH]c3ccccc23)NC(=O)[C@H](CC(=O)O)NC(=O)CCCC(=O)NC[C@H](O)[C@@H](O)[C@H](O)[C@H](O)CO)CSCc2cccc(n2)CSC[C@@H](C(=O)NC2CCN(CC(=O)N[C@H](CCC(=O)NC[C@H](O)[C@@H](O)[C@H](O)[C@H](O)CO)C(N)=O)CC2)NC1=O [GIP-066, Lutetium-Complex of AGLU-Glutar-Asp-Trp-5Clw-Hyp-Glu-leu-[Cys(2Lut)-Apc(DOTA)-Leu-Ile-Cys]-APAc-glu(AGLU)-NH2] ({NH(1-deoxy-D-glucityl)-Glutaryl}-DW[Trp(5-Cl)][Pro(4R-NH2)]E[dL]C[Api](DOTA(Lu))LIC[X1][dE](NH(1-deoxy-D-glucityl))-NH2; linker 7-11 via Pyridine(2,6-diCH2)) |  | A (t1/2 values>15 min) |  | < 10 | < 1 |
| CC[C@H](C)[C@@H]1NC(=O)[C@H](CC(C)C)NC(=O)C2(CCN(C(=O)CN3CCN4CCN5CCN(CC3)CC(=O)[O][Ga]([O]C(=O)C5)[O]C(=O)C4)CC2)NC(=O)[C@@H](NC(=O)[C@@H](CC(C)C)NC(=O)[C@H](CCC(=O)O)NC(=O)[C@@H]2C[C@@H](N)CN2C(=O)[C@H](Cc2c[nH]c3ccc(Cl)cc23)NC(=O)[C@H](Cc2c[nH]c3ccccc23)NC(=O)[C@H](CC(=O)O)NC(=O)CCCC(=O)NC[C@H](O)[C@@H](O)[C@H](O)[C@H](O)CO)CSCc2cccc(n2)CSC[C@@H](C(=O)NC2CCN(CC(=O)N[C@H](CCC(=O)NC[C@H](O)[C@@H](O)[C@H](O)[C@H](O)CO)C(N)=O)CC2)NC1=O [GIP-069, Gallium-Complex of AGLU-Glutar-Asp-Trp-5Clw-Tap-Glu-leu-[Cys(2Lut)-Apc(DOTA)-Leu-Ile-Cys]-APAc-glu(AGLU)-NH2] ({NH(1-deoxy-D-glucityl)-Glutaryl}-DW[Trp(5-Cl)][Pro(4R-NH2)]E[dL]C[Api](DOTA(Ga))LIC[X1][dE](NH(1-deoxy-D-glucityl))-NH2; linker 7-11 via Pyridine(2,6-diCH2)) | < 10 | A (t1/2 values>15 min) | < 1 |  |  |

Continued, in another order:

| IC50 [1, 3] [nM] | t1/2 Category [2, 4] | Kd [2, 5] [nM] | Compound | IC50 ([1]; pIC50 Category) [nM] | Kd [2] [nM] |
| --- | --- | --- | --- | --- | --- |
| 10 to 79.4 | D (t1/2<2.0 min) | 1 to 7.94 | CC[C@H](C)[C@@H]1NC(=O)[C@H](CC(C)C)NC(=O)C2(CCN(C(=O)CN3CCN(CC(=O)O)CCN(CC(=O)O)CCN(CC(=O)O)CC3)CC2)NC(=O)[C@@H](NC(=O)[C@@H](CC(C)C)NC(=O)[C@H](CCO)NC(=O)[C@@H]2C[C@@H](NC(=O)CCCC(=O)NC[C@H](O)[C@@H](O)[C@H](O)[C@H](O)CO)CN2C(=O)[C@H](Cc2c[nH]c3ccc(Cl)cc23)NC(=O)[C@H](Cc2c[nH]c3ccccc23)NC(=O)[C@H](CO)NC(=O)CN2CCC(NC(=O)CCCC(=O)NC[C@H](O)[C@@H](O)[C@H](O)[C@H](O)CO)CC2)CSCc2cccc(n2)CSC[C@@H](C(=O)NC2CCN(CC(=O)N[C@H](CCC(=O)NC[C@H](O)[C@@H](O)[C@H](O)[C@H](O)CO)C(N)=O)CC2)NC1=O [GIP-046, AGLU-Glutar-APAc-Ser-Trp-5Clw-Tap(AGLU-Glutar)-Hse-leu-[Cys(2Lut)-Apc(DOTA)-Leu-Ile-Cys]-APAc-glu(AGLU)-NH2] ({NH(1-deoxy-D-glucityl)-Glutaryl}-[X1]SW[Trp(5-Cl)][Pro(trans-4-NH2)]([Glutaryl-NH(1-deoxy-D-glucityl)])[hSer][dL]C[Api](DOTA)LIC[X1][dE](NH(1-deoxy-D-glucityl))-NH2; linker 8-12 via Pyridine(2,6-diCH2)) |  |  |
| 10 to 79.4 | D (t1/2<2.0 min) | 1 to 7.94 | CC[C@H](C)[C@@H]1NC(=O)[C@H](CC(C)C)NC(=O)C2(CCN(C(=O)CN3CCN(CC(=O)O)CCN(CC(=O)O)CCN(CC(=O)O)CC3)CC2)NC(=O)[C@@H](NC(=O)[C@@H](CC(C)C)NC(=O)[C@H](CCO)NC(=O)[C@@H]2C[C@@H](N)CN2C(=O)[C@H](Cc2c[nH]c3ccc(Cl)cc23)NC(=O)[C@H](Cc2c[nH]c3ccccc23)NC(=O)[C@H](CO)NC(=O)CN2CCC(NC(=O)CCCC(=O)NC[C@H](O)[C@@H](O)[C@H](O)[C@H](O)CO)CC2)CSCc2cccc(n2)CSC[C@@H](C(=O)NC2CCN(CC(=O)N[C@H](CCC(=O)NC[C@H](O)[C@@H](O)[C@H](O)[C@H](O)CO)C(N)=O)CC2)NC1=O [GIP-048, AGLU-Glutar-APAc-Ser-Trp-5Clw-Tap-Hse-leu-[Cys(2Lut)-Apc(DOTA)-Leu-Ile-Cys]-APAc-glu(AGLU)-NH2] ({NH(1-deoxy-D-glucityl)-Glutaryl}-[X1]SW[Trp(5-Cl)][Pro(4R-NH2)][hSer][dL]C[Api](DOTA)LIC[X1][dE](NH(1-deoxy-D-glucityl))-NH2; linker 8-12 via Pyridine(2,6-diCH2)) |  |  |
| 10 to 79.4 | D (t1/2<2.0 min) | 1 to 7.94 | CC[C@H](C)[C@@H]1NC(=O)[C@H](CC(C)C)NC(=O)C2(CCN(C(=O)CN3CCN(CC(=O)O)CCN(CC(=O)O)CCN(CC(=O)O)CC3)CC2)NC(=O)[C@@H](NC(=O)[C@@H](CC(C)C)NC(=O)[C@H](CCC(=O)O)NC(=O)[C@@H]2C[C@@H](O)CN2C(=O)[C@H](Cc2c[nH]c3ccc(Cl)cc23)NC(=O)[C@H](Cc2c[nH]c3ccccc23)NC(=O)[C@H](CCO)NC(=O)CN2CCC(NC(=O)CCCC(=O)NC[C@H](O)[C@@H](O)[C@H](O)[C@H](O)CO)CC2)CSCc2cccc(n2)CSC[C@@H](C(=O)NC2CCN(CC(=O)N[C@H](CCC(=O)NC[C@H](O)[C@@H](O)[C@H](O)[C@H](O)CO)C(N)=O)CC2)NC1=O [GIP-049, AGLU-Glutar-APAc-Hse-Trp-5Clw-Hyp-Glu-leu-[Cys(2Lut)-Apc(DOTA)-Leu-Ile-Cys]-APAc-glu(AGLU)-NH2] ({NH(1-deoxy-D-glucityl)-Glutaryl}-[X1][hSer]W[Trp(5-Cl)][Hyp]E[dL]C[Api](DOTA)LIC[X1][dE](NH(1-deoxy-D-glucityl))-NH2; linker 8-12 via Pyridine(2,6-diCH2)) |  |  |
